This is an account of results in patent US20150344427A1 (EPIZYME, INC., priority 2012, published 2015).

This test deals with T1, wild-type EZH2 (PRC2 enzyme) (Homo sapiens, UniProt Q15910).
T1 construct: made in house; host or cells: Spodoptera frugiperda (sf9) cells, baculovirus
T1 sequence (Q15910 whole entry): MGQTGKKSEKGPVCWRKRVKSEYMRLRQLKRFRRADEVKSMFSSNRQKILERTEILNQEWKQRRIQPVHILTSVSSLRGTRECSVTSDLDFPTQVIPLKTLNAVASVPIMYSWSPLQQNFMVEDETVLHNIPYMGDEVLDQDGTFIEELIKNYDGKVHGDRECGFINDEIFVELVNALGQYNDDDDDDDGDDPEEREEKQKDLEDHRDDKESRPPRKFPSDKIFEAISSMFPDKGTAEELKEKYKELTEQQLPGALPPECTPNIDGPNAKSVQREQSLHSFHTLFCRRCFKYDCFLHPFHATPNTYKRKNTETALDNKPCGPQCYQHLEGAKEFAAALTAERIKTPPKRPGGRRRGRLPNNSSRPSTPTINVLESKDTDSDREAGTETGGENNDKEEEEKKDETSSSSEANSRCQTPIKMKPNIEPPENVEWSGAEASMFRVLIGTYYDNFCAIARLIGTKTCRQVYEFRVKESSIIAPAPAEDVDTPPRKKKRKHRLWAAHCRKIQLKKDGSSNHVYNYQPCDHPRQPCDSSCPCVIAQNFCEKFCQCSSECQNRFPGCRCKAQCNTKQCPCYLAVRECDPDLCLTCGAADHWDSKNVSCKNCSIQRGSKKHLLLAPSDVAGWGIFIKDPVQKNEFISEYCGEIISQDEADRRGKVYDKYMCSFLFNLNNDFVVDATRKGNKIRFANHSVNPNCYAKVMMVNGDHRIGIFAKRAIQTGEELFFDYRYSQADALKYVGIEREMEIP
T1 sequence (O75530 whole entry partner): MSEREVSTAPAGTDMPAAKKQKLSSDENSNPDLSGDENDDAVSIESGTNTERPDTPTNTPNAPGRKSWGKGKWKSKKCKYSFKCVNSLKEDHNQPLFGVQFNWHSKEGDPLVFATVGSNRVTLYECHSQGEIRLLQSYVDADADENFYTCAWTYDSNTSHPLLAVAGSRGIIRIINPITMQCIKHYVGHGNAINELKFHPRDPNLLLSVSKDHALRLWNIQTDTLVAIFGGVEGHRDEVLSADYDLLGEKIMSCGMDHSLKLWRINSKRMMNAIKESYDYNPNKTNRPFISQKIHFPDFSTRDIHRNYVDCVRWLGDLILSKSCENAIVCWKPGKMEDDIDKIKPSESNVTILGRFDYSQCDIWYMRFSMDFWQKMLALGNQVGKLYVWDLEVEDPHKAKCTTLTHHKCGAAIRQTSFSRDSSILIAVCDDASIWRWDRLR
T1 sequence (Q15022 whole entry partner): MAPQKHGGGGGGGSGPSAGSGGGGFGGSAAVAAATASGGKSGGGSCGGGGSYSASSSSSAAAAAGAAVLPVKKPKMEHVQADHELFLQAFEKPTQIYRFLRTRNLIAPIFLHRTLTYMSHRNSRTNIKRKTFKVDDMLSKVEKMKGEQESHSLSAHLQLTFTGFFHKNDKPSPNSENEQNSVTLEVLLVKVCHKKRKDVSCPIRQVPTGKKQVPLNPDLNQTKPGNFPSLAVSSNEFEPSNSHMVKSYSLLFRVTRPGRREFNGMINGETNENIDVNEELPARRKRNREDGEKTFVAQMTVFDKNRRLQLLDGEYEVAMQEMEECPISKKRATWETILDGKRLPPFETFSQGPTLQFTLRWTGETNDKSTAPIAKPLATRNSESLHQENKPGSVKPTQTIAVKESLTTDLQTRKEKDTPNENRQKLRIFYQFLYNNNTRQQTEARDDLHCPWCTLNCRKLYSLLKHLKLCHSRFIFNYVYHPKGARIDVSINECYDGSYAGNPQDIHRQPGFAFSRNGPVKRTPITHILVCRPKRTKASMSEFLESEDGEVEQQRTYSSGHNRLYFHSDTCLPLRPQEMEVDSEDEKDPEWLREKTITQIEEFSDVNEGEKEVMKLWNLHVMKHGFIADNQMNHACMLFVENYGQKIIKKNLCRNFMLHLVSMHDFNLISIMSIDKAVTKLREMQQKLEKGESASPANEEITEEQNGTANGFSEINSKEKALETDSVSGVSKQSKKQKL
T1 sequence (Q09028 whole entry partner): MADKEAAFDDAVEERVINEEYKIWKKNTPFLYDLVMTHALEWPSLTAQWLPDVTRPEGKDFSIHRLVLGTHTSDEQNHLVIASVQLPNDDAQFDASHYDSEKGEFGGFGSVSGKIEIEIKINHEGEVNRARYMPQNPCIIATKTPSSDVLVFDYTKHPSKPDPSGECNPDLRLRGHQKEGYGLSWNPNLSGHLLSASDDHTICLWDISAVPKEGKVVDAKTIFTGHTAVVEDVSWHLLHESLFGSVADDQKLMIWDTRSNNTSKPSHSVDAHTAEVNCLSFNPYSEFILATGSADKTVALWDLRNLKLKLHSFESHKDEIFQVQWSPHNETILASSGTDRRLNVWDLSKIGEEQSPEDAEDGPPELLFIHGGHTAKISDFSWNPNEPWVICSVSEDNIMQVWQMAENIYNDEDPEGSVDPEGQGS
Description: PRC2 enzyme assay on peptide substrate, wild-type EZH2. It is filed as biochemical. As to conditions: wild-type PRC2 enzyme 4 nM, H3K27me0 peptide, 3H-SAM Flashplate; read-out: WT EZH2 IC50. The text has this: General Materials. S-adenosylmethionine (SAM), S-adenosylhomocyteine (SAH), bicine, KCl, Tween20, dimethylsulfoxide (DMSO) and bovine skin gelatin (BSG) were purchased from Sigma-Aldrich at the highest level of purity possible. Dithiothreitol (DTT) was purchased from EMD. ^3H-SAM was purchased from American Radiolabeled Chemicals with a specific activity of 80 Ci/mmol. 384-well streptavidin Flashplates were purchased from PerkinElmer.
Peptides representative of human histone H3 residues 21-44 containing either an unmodified lysine 27 (H3K27me0) or dimethylated lysine 27 (H3K27me2) were synthesized with a C-terminal G(K-biotin) linker-affinity tag motif and a C-terminal amide cap by 21st Century Biochemicals. […] The sequences are listed below.
Human PRC2 enzymes were purified as 4-component enzyme complexes co-expressed in Spodoptera frugiperda (sf9) cells using a baculovirus expression system. […] The EED subunit contained an N-terminal FLAG tag that was used to purify the entire 4-component complex from sf9 cell lysates.
The assays were all performed in a buffer consisting of 20 mM bicine (pH=7.6), 0.5 mM DTT, 0.005% BSG and 0.002% Tween20, prepared on the day of use. Compounds in 100% DMSO (1 μL) were spotted into polypropylene 384-well V-bottom plates (Greiner) using a Platemate 2×3 outfitted with a 384-channel pipet head (Thermo). DMSO (1 μL) was added to columns 11, 12, 23, 24, rows A-H for the maximum signal control, and SAH, a known product and inhibitor of PRC2 (1 μL) was added to columns 11,12, 23, 24, rows I-P for the minimum signal control. A cocktail (40 μL) containing the wild-type PRC2 enzyme and H3K27me0 peptide or any of the Y641 mutant enzymes and H3K27me2 peptide was added by Multidrop Combi (Thermo). The compounds were allowed to incubate with PRC2 for 30 min at 25° C., then a cocktail (10 μL) containing a mixture of non-radioactive and ^3H-SAM was added to initiate the reaction (final volume=51 μL). In all cases, the final concentrations were as follows: wild-type or mutant PRC2 enzyme was 4 nM, SAH in the minimum signal control wells was 1 mM and the DMSO concentration was 1%. The assays were stopped by the addition of non-radioactive SAM (10 μL) to a final concentration of 600 μM, which dilutes the ^3H-SAM to a level where its incorporation into the peptide substrate is no longer detectable. 50 μL of the reaction in the 384-well polypropylene plate was then transferred to a 384-well Flashplate and the biotinylated peptides were allowed to bind to the streptavidin surface for at least 1 h before being washed three times with 0.1% Tween20 in a Biotek ELx405 plate washer. The plates were then read in a PerkinElmer TopCount platereader to measure the quantity of ^3H-labeled peptide bound to the Flashplate surface, measured as disintegrations per minute (dpm) or alternatively, referred to as counts per minute (cpm).
Where dpm=disintegrations per minute, cmpd=signal in assay well, and min and max are the respective minimum and maximum signal controls.
Where top and bottom are the normally allowed to float, but may be fixed at 100 or 0 respectively in a 3-parameter fit. The Hill Coefficient normally allowed to float but may also be fixed at 1 in a 3-parameter fit. Y is the % inhibition and X is the compound concentration.
`CCN(c1cc(Cl)cc(C(=O)NCc2c(C)[nH]c(C)cc2=O)c1C)[C@H]1CC[C@H](N(C)C)CC1` [Compound 1, 5-chloro-N-((2,6-dimethyl-4-oxo-1,4-dihydropyridin-3-yl)methyl)-3-(((trans)-4-(dimethylamino)cyclohexyl)(ethyl)amino)-2-methylbenzamide]: the 50% inhibitory concentration (IC50) (as a rule, the point on the concentration scale where inhibition reaches its midpoint) lay in the range of 0.022 to 0.037 µM.
To `CCN(c1cc(Cl)cc(C(=O)NCc2c(C)n(C)c(C)cc2=O)c1C)[C@H]1CC[C@H](N(C)C)CC1` [Compound 86] belongs above 50 µM.
Turning to `CCn1c(C)cc(=O)c(CNC(=O)c2cc(Cl)cc(N(CC)[C@H]3CC[C@H](N(C)C)CC3)c2C)c1C` [Compound 87], the IC50 is 35.4 µM.
The value for `CCN(c1cc(-c2ccc(COC)nc2)cc(C(=O)NCc2c(Cl)[nH]c(C)cc2=O)c1C)[C@H]1CC[C@H](N(C)C)CC1` [Compound 88] was 0.04 µM; that for `CCN(c1cc(-c2cnn(C)c2)cc(C(=O)NCc2c(Cl)[nH]c(C)cc2=O)c1C)[C@H]1CC[C@H](N(C)C)CC1` [Compound 89] was 0.27 µM; that for `CCN(c1cc(-c2ccc(C)nc2)cc(C(=O)NCc2c(Cl)[nH]c(C)cc2=O)c1C)[C@H]1CC[C@H](N(C)C)CC1` [Compound 90] was 0.05 µM.
With `CCN(c1cc(-c2cnc(C)cn2)cc(C(=O)NCc2c(Cl)[nH]c(C)cc2=O)c1C)[C@H]1CC[C@H](N(C)C)CC1` [Compound 91], the IC50 turned out to be 0.14 µM.
The value for `CCN(c1cc(-c2ccc(OCCOC)cc2)cc(C(=O)NCc2c(Cl)[nH]c(C)cc2=O)c1C)[C@H]1CC[C@H](N(C)C)CC1` [Compound 92] was 0.038 µM.
To `CCN(c1cc(-c2ccc(OCCOC)cc2)cc(C(=O)NCc2c(C)[nH]c(C)cc2=O)c1C)[C@H]1CC[C@H](N(C)C)CC1` [Compound 93] belongs 0.005 µM; to `CCCN(c1cc(-c2ccc(OCCOC)cc2)cc(C(=O)NCc2c(C)[nH]c(C)cc2=O)c1C)[C@H]1CC[C@H](N(C)C)CC1` [Compound 94], 0.025 µM.
The value for `CCN(c1cc(-c2ccc(OCCOC)cc2)cc(C(=O)NCc2c(C)[nH]c(C)cc2=O)c1C)[C@H]1CC[C@H](N(C)CCOC)CC1` [Compound 100] was 0.027 µM.
